Results as given in PubChem BioAssay AID192 (DTP/NCI, 2004).
Toxic doses and inconclusive results are not listed. Peptide text beside a SMILES is read from it. * marks the point of attachment. Cbz = O=C(OCc1ccccc1)*

System: BDF1 mice, B16 melanoma ip, median survival T/C
Assay: NCI In Vivo Anticancer Drug Screen. Data for tumor model B16 Melanoma (intraperitoneal) in B6D2F1 (BDF1) mice
Details: endpoint: median survival time, higher = longer survival
Outline: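 Read-out: survival or tumor size, given as treated/control ratio. Controls received vehicle only; animals bore transplantable tumors.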

[1] = dose: 6.25 mg/kg/injection, schedule: Q01DX009 (ip), vehicle: Klucel (hydroxypropylcellulose) (HPC)
[2] = dose: 12.5 mg/kg/injection, schedule: Q01DX009 (ip), vehicle: Klucel (hydroxypropylcellulose) (HPC)
[3] = dose: 25.0 mg/kg/injection, schedule: Q01DX009 (ip), vehicle: Klucel (hydroxypropylcellulose) (HPC)
[4] = dose: 50.0 mg/kg/injection, schedule: Q01DX009 (ip), vehicle: Klucel (hydroxypropylcellulose) (HPC)
[5] = dose: 50.0 mg/kg/injection, schedule: Q01DX009 (ip), vehicle: saline
[6] = dose: 100.0 mg/kg/injection, schedule: Q01DX009 (ip), vehicle: saline
[7] = dose: 200.0 mg/kg/injection, schedule: Q01DX009 (ip), vehicle: saline
[8] = dose: 100.0 mg/kg/injection, schedule: Q01DX009 (ip), vehicle: Klucel (hydroxypropylcellulose) (HPC)
[9] = dose: 200.0 mg/kg/injection, schedule: Q01DX009 (ip), vehicle: Klucel (hydroxypropylcellulose) (HPC)
[10] = dose: 400.0 mg/kg/injection, schedule: Q01DX009 (ip), vehicle: Klucel (hydroxypropylcellulose) (HPC)
[11] = dose: 100.0 mg/kg/injection, schedule: Q01DX009 (ip), vehicle: saline with Tween-80
[12] = dose: 6.25 mg/kg/injection, schedule: Q01DX009 (ip), vehicle: saline with Tween-80
[13] = dose: 12.5 mg/kg/injection, schedule: Q01DX009 (ip), vehicle: saline with Tween-80
[14] = dose: 25.0 mg/kg/injection, schedule: Q01DX009 (ip), vehicle: saline with Tween-80
[15] = dose: 50.0 mg/kg/injection, schedule: Q01DX009 (ip), vehicle: saline with Tween-80

SMILES: COc1c2ccoc2nc2c(OC)c3c(cc12)OCO3
- T/C [1]: 89 % of control
- T/C [2]: 100 % of control
- T/C [3]: 95 % of control
- T/C [4]: 92 % of control

SMILES: c1ccc2c(c1)CNNC2
- T/C [5]: 123 % of control
- T/C [6]: 111 % of control
- T/C [7]: 100 % of control

SMILES: CCSCCNC(=O)[C@@]1(O)[C@H](O)[C@]2(CC)C=CCN3CC[C@@]4(c5cc([C@@]6(OC(C)=O)C[C@H]7C=C(CC)CN(CCc8c6[nH]c6ccccc86)C7)c(OC)cc5N(C)[C@@H]14)[C@@H]32
- T/C (dose: 0.13 mg/kg/injection, schedule: Q01DX009 (ip), vehicle: water): 100 % of control
- T/C (dose: 0.25 mg/kg/injection, schedule: Q01DX009 (ip), vehicle: water): 115 % of control
- T/C (dose: 0.5 mg/kg/injection, schedule: Q01DX009 (ip), vehicle: water): 120 % of control
- T/C (dose: 1.0 mg/kg/injection, schedule: Q01DX009 (ip), vehicle: water): 155 % of control
- T/C (dose: 2.0 mg/kg/injection, schedule: Q01DX009 (ip), vehicle: water): 162 % of control

SMILES: NC(CSCc1ccccc1)C(=O)O (stereo unspecified)
- T/C [3]: 98 % of control
- T/C [4]: 106 % of control
- T/C [8]: 102 % of control
- T/C [9]: 98 % of control
- T/C [10]: 117 % of control

SMILES: CN=C(N)NC
- T/C [5]: 95 % of control
- T/C [6]: 98 % of control
- T/C [7]: 104 % of control

SMILES: COc1cc2ccc(CCNCc3ccccc3)cc2cc1OC
- T/C (dose: 50.0 mg/kg/injection, schedule: Q04DX003 (ip), vehicle: saline): 92 % of control
- T/C (dose: 100.0 mg/kg/injection, schedule: Q04DX003 (ip), vehicle: saline): 94 % of control

SMILES: CC(C)(C)c1cc(C[P+](c2ccccc2)(c2ccccc2)c2ccccc2)cc(C(C)(C)C)c1O
- T/C (dose: 0.78 mg/kg/injection, schedule: Q01DX009 (ip), vehicle: saline): 111 % of control
- T/C (dose: 1.56 mg/kg/injection, schedule: Q01DX009 (ip), vehicle: saline): 109 % of control
- T/C (dose: 3.12 mg/kg/injection, schedule: Q01DX009 (ip), vehicle: saline): 104 % of control
- T/C (dose: 3.25 mg/kg/injection, schedule: Q04DX003 (ip), vehicle: saline): 94 % of control
- T/C (dose: 4.6 mg/kg/injection, schedule: Q01DX009 (ip), vehicle: saline): 86 % of control

SMILES: Cc1ccc(C)c(NC(=O)NC(C)C)c1
- T/C [8]: 106 % of control
- T/C [9]: 100 % of control
- T/C [10]: 103 % of control

SMILES: O=C(O)c1ccccc1C(=O)OC1CC2C=CC1C21CC1 (stereo unspecified)
- T/C [2]: 96 % of control
- T/C [3]: 96 % of control
- T/C [4]: 93 % of control

SMILES: Brc1ccc2c(c1)-c1ccccc1C1=NCCN12
- T/C (dose: 2.5 mg/kg/injection, schedule: Q01DX009 (ip), vehicle: Klucel (hydroxypropylcellulose) (HPC)): 118 % of control
- T/C (dose: 5.0 mg/kg/injection, schedule: Q01DX009 (ip), vehicle: Klucel (hydroxypropylcellulose) (HPC)): 103 % of control
- T/C (dose: 5.0 mg/kg/injection, schedule: Q04DX003 (ip), vehicle: saline with Tween-80): 100 % of control
- T/C (dose: 10.0 mg/kg/injection, schedule: Q01DX009 (ip), vehicle: Klucel (hydroxypropylcellulose) (HPC)): 93 % of control
- T/C (dose: 10.0 mg/kg/injection, schedule: Q04DX003 (ip), vehicle: saline with Tween-80): 102 % of control
- T/C (dose: 10.0 mg/kg/injection, schedule: Q04DX003 (ip), vehicle: saline): 105 % of control
- T/C (dose: 20.0 mg/kg/injection, schedule: Q04DX003 (ip), vehicle: saline with Tween-80): 100 % of control

SMILES: NCOC(=O)Cc1ccc(Br)cc1
- T/C [8]: 97 % of control
- T/C [9]: 97 % of control
- T/C [10]: 89 % of control

SMILES: CC(O)CNCCNc1ccc(NCCNCC(C)O)c2c1C(=O)c1c(O)ccc(O)c1C2=O (stereo unspecified)
- T/C (dose: 0.5 mg/kg/injection, schedule: Q01DX009 (ip), vehicle: distilled water + Tween-80): 150 % of control
- T/C (dose: 1.0 mg/kg/injection, schedule: Q01DX009 (ip), vehicle: distilled water + Tween-80): 163 % of control
- T/C (dose: 2.0 mg/kg/injection, schedule: Q01DX009 (ip), vehicle: distilled water + Tween-80): 178 % of control
- T/C (dose: 4.0 mg/kg/injection, schedule: Q01DX009 (ip), vehicle: distilled water + Tween-80): 222 % of control
- T/C (dose: 8.0 mg/kg/injection, schedule: Q01DX009 (ip), vehicle: distilled water + Tween-80): 222 % of control
- T/C (dose: 16.0 mg/kg/injection, schedule: Q01DX009 (ip), vehicle: distilled water + Tween-80): 222 % of control

SMILES: CC(=O)Oc1c(C)c2c(O)c3c1C1=C(OCOC1=C(C)C3=O)C(C)=CC(C)(O)C(O)C(C)C(O)C1C(=O)OC(C(C)/C=C\C=C(C)C(=O)N2)C(C)C1O (stereo unspecified)
- T/C [5]: 97 % of control

SMILES: CC1CCN(c2ccc([N+](=O)[O-])cc2)CC1
- T/C [8]: 106 % of control
- T/C [9]: 87 % of control
- T/C [10]: 96 % of control

SMILES: O=C1Cc2cc3c(cc2C=C2CCCN12)OCO3
- T/C (dose: 12.5 mg/kg/injection, schedule: Q01DX009 (ip), vehicle: water): 117 % of control
- T/C (dose: 25.0 mg/kg/injection, schedule: Q01DX009 (ip), vehicle: water): 108 % of control
- T/C (dose: 50.0 mg/kg/injection, schedule: Q01DX009 (ip), vehicle: water): 102 % of control
- T/C (dose: 100.0 mg/kg/injection, schedule: Q01DX009 (ip), vehicle: water): 107 % of control

SMILES: c1ccc(-c2nc3ccc4ccccc4c3nc2-c2ccccc2)cc1
- T/C [11]: 100 % of control
- T/C (dose: 200.0 mg/kg/injection, schedule: Q01DX009 (ip), vehicle: saline with Tween-80): 118 % of control
- T/C (dose: 400.0 mg/kg/injection, schedule: Q01DX009 (ip), vehicle: saline with Tween-80): 95 % of control

SMILES: CN(C(=N)N)c1ccc(C(=O)Oc2ccc([N+](=O)[O-])cc2)cc1
- T/C [4]: 104 % of control
- T/C [8]: 101 % of control
- T/C [9]: 103 % of control

SMILES: COC1=CC(=O)N(C(=O)C2CSC(C(CO)NC(=O)c3csc(/C=N/O)n3)=N2)C1 (stereo unspecified)
- T/C [8]: 97 % of control
- T/C [10]: 106 % of control

SMILES: COc1cccnc1/C=N/NC(N)=S
- T/C (dose: 1.5 mg/kg/injection, schedule: Q01DX009 (ip), vehicle: saline with Tween-80): 98 % of control
- T/C (dose: 3.0 mg/kg/injection, schedule: Q01DX009 (ip), vehicle: saline with Tween-80): 93 % of control
- T/C (dose: 6.0 mg/kg/injection, schedule: Q01DX009 (ip), vehicle: saline with Tween-80): 95 % of control
- T/C (dose: 12.0 mg/kg/injection, schedule: Q01DX009 (ip), vehicle: saline with Tween-80): 98 % of control

SMILES: NC(=O)C(Cc1ccccc1)NC(=O)C(Cc1ccccc1)NC(=O)C(Cc1ccccc1)NC(=O)OCc1ccccc1 (stereo not drawn) (Cbz-Phe-Phe-Phe-NH2; configuration not given here)
- T/C (dose: 3.12 mg/kg/injection, schedule: Q01DX009 (ip), vehicle: saline with Tween-80): 100 % of control
- T/C [12]: 89 % of control
- T/C [13]: 96 % of control
- T/C [14]: 91 % of control

SMILES: O=S(=O)(CCCl)c1ccc2ccccc2c1
- T/C [1]: 100 % of control
- T/C [2]: 104 % of control
- T/C [3]: 106 % of control
- T/C [4]: 104 % of control

SMILES: CS/C([S-])=N/[NH-].CS/C([S-])=N/[NH-].[Pd]
- T/C (dose: 3.13 mg/kg/injection, schedule: Q01DX009 (ip), vehicle: saline with Tween-80): 98 % of control
- T/C [12]: 101 % of control
- T/C [13]: 99 % of control

SMILES: CC(=O)CC(=O)NC1CCCC1
- T/C [8]: 96 % of control
- T/C [9]: 96 % of control
- T/C [10]: 107 % of control

SMILES: CCCCCCCCCCCC(=O)CC
- T/C (dose: 100.0 mg/kg/injection, schedule: Q01DX009 (ip), vehicle: other): 96 % of control
- T/C (dose: 200.0 mg/kg/injection, schedule: Q01DX009 (ip), vehicle: other): 87 % of control

SMILES: NCCCC(N)(C(=O)O)C(F)F (stereo unspecified)
- T/C (dose: 50.0 mg/kg/injection, schedule: Q01DX009 (ip), vehicle: distilled water + alcohol): 94 % of control
- T/C (dose: 100.0 mg/kg/injection, schedule: Q01DX009 (ip), vehicle: distilled water + alcohol): 101 % of control
- T/C (dose: 200.0 mg/kg/injection, schedule: Q01DX009 (ip), vehicle: distilled water + alcohol): 97 % of control
- T/C (dose: 400.0 mg/kg/injection, schedule: Q01DX009 (ip), vehicle: distilled water + alcohol): 100 % of control
- T/C (dose: 800.0 mg/kg/injection, schedule: Q01DX009 (ip), vehicle: distilled water + alcohol): 110 % of control

SMILES: Cc1cccc(C)c1C1=NCCN1
- T/C [13]: 95 % of control
- T/C [14]: 95 % of control
- T/C [15]: 93 % of control

SMILES: O=C(COc1ccc(Cl)cc1Cl)Nc1ccc(F)cc1
- T/C [14]: 110 % of control
- T/C [15]: 91 % of control
- T/C [11]: 86 % of control
